Results: article PMC5333395, “Assessing histone demethylase inhibitors in cells: lessons learned” (Epigenetics & Chromatin, 2017)

Molecular target: T1, KDM2A (Homo sapiens, UniProt Q9Y2K7)
T1 sequence (Q9Y2K7 1-1162): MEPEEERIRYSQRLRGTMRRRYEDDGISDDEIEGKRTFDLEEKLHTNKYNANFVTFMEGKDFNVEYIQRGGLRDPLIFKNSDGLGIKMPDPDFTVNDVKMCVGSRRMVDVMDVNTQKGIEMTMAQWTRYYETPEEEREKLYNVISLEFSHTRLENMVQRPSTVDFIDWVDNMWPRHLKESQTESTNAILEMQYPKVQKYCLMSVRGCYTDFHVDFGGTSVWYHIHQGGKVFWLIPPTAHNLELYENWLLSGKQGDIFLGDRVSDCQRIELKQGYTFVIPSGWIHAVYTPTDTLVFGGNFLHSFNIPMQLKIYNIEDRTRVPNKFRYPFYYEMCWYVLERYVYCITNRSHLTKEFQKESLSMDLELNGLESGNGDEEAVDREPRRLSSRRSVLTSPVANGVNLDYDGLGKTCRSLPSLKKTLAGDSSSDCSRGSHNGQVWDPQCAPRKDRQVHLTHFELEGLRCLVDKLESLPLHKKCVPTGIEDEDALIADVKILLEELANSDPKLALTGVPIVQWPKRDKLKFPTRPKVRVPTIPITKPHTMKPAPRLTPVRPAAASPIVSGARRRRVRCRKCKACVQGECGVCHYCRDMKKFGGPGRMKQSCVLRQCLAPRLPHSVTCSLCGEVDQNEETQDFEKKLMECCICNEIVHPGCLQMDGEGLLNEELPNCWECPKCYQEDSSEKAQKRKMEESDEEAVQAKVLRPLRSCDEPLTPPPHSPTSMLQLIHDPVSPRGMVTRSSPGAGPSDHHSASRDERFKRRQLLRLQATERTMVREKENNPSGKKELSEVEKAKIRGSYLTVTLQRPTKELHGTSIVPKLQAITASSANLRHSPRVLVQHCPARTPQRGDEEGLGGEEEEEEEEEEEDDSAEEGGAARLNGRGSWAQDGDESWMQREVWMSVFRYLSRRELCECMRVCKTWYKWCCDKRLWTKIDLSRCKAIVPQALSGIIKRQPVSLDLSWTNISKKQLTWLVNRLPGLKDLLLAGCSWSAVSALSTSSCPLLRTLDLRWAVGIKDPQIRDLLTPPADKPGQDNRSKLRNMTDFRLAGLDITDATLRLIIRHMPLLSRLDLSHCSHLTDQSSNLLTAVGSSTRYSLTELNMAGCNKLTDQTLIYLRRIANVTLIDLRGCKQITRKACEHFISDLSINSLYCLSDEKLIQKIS
Experiment: High-content immunofluorescence (IF) assay, overexpressed full-length FLAG-tagged KDM in HeLa cells
Type: cell-based
Conditions: HeLa cells overexpressing WT KDM2A, 24 h; read-out: KDM2A, in cells, EC50 by IF assay (head: IC50)

## CCN(CCN(C)C)C(=O)CNCc1cncc(C(N)=O)c1 [KDOAM-32]
  EC50: > 100 µM
